Source: patent US20060233738A1, “Composition for promoting production of type 1 collagen and/or elastin” (priority 2003, published 2006)

How the values were obtained:
Format in all cases: cell-based
[1] = tested on: type I collagen; experiment: Promotion of type I collagen production in normal human skin fibroblast cells (western blotting, image analysis); settings: NFB cells, 24 hours
Method: (§1) Each compound was dissolved in DMSO to produce a stock solution, and an appropriate amount of each stock solution was added to a culture solution and applied to cells. By following the same procedure, a stock solution was prepared by dissolving silymarin (silymarin group manufactured by Sigma-Aldrich) in the aforementioned DMSO, and an appropriate amount of the stock solution was added to a culture solution to check the effect of adding silymarin.
(§2) Normal human skin fibroblast cells (hereinafter referred to as “NFB”), provided as CCD1059 (purchased from Dainippon Pharmaceutical), were cultured in a skin fibroblast cell culture medium (FGM manufactured by Sanko Junyaku) at 37° C. in a 5% CO2 incubator. FGM was prepared by adding a human skin fibroblast cell growth factor (1 μg/ml), insulin ([…]), gentamycin (50 μg/ml) and amphotericin B (50 μg/ml) to a base fibroblast cell culture medium. This test used cells whose passage number was 3 to 7. […]
(§3) Protein in the sample was separated by SDS-PAGE and transferred to a nitrocellulose membrane. […] The obtained substance was washed, and then detected using ECL plus western blotting detection reagent (manufactured by Amersham Biosciences). The detected band was scanned using an image scanner (manufactured by Amersham Biosciences) and analyzed using image master software to produce numerical data.

[2] = tested on: elastin; experiment: Promotion of elastin production in a three-dimensional human skin model (TESTSKIN LSE-high); settings: concentration 0.05% in dipropylene glycol, 2 x 24 hours
Text: (§4) Three-dimensional human skin models are widely used in safety evaluations and effectiveness evaluations as pseudo human skins. In this evaluation, TESTSKIN (LSE-high) (manufactured by Toyobo) was used as a three-dimensional human skin model, and cultured in accordance with the protocol specified in the attached document. Silybum marianum extract containing 70% silymarin (manufactured by Indina), soybean lecithin (manufactured by Wako Pure Chemical Industries) and retinoic acid (all-trans-retinoic acid manufactured by Wako Pure Chemical Industries) were dissolved to respective concentrations in dipropylene glycol (manufactured by Wako Pure Chemical Industries). […]
(§5) Next, 60 μl of each tested substance was added to tissues in an assay ring and the tissues were cultured for 24 hours. […] Protein in the sample was determined using a DC protein assay kit (manufactured by Bio-Rad Laboratories) based on the Lowry method (Non-patent Literature 11), and 20 mM Tris-HCl (pH 7.5) was added to achieve 2 μg/μl. […]
In the same manner as described in the aforementioned evaluation of the property to promote type I collagen production in a three-dimensional human skin model, the property to promote elastin production was evaluated using a three-dimensional human skin model.

[3] = tested on: type I collagen; experiment: Promotion of type I collagen production in a three-dimensional human skin model (TESTSKIN LSE-high); settings: concentration 0.05% in dipropylene glycol, 2 x 24 hours
Text: as §4, §5
The obtained sample was used to evaluate the property to promote type I collagen production using the western blotting method. […] The obtained substance was washed, and then detected using ECL plus western blotting detection reagent (manufactured by Amersham Biosciences). […]

[4] = tested on: elastin; experiment: Promotion of elastin production in normal human skin fibroblast cells (western blotting, image analysis); settings: NFB cells, 24 hours
Method: as §1, §2, §3

## CC1=C(/C=C/C(C)=C/C=C/C(C)=C/C(=O)O)C(C)(C)CCC1 [Retinoic acid, all-trans-retinoic acid]
[1]; treated concentration 250 nM
  Ratio to untreated control (full-length type I collagen): 2.0
[1]; treated concentration 500 nM
  Ratio to untreated control (full-length type I collagen): 1.4
[2]
  Relative expression level (full-length elastin): 3.3
[3]
  Relative expression level (full-length type I collagen): 2.0
[4]; treated concentration 250 nM
  Ratio to untreated control (full-length elastin): 2.8
[4]; treated concentration 500 nM
  Ratio to untreated control (full-length elastin): 1.4
